How the values were obtained:
AtGSTU19 = biological target: T1, AtGSTU19 (Arabidopsis thaliana, UniProt Q9ZRW8); test: UPLC-qTOF MS initial velocities, Michaelis-Menten non-linear regression; assay type: biochemical; settings: co-substrate glutathione; unit printed as µmol (amount, not concentration)
T1 construct: gene GSTU19
Text: UPLC-qTOF MS initial velocities, Michaelis-Menten non-linear regression on AtGSTU19

AtGSTU7 = biological target: T2, AtGSTU7 (Arabidopsis thaliana, UniProt Q9ZW24); test: as above; assay type: biochemical; settings: co-substrate glutathione; unit printed as µmol (amount, not concentration)
T2 construct: gene GSTU7
T2 sequence (Q9ZW24 1-227): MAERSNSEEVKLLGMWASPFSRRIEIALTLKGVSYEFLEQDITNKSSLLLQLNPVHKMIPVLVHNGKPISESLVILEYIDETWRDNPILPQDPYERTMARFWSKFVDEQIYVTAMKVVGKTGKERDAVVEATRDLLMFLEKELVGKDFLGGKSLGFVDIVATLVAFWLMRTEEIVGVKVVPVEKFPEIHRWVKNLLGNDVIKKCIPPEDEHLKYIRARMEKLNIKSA
Text: UPLC-qTOF MS initial velocities, Michaelis-Menten non-linear regression on AtGSTU7

T1 sequence (Q9ZRW8 whole entry): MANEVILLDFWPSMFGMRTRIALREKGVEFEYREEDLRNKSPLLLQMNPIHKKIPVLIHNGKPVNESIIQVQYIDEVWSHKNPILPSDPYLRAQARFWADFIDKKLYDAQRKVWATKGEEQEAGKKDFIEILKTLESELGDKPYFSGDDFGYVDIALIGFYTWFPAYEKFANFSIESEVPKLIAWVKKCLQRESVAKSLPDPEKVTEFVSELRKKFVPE

CC(C)N(C(=O)COc1nnc(C(F)(F)F)s1)c1ccc(F)cc1 [flufenacet]
Km (AtGSTU19): 95.08 µmol
Km (AtGSTU7): 109.57 µmol
